Reference: PMC9783783 (Pharmaceutics, 2022)

How the values were obtained:
in vitro = conditions: for fraction unbound at 24 h, 10 μg/mL: rat, plasma, pH 7.4, Plasma protein binding
Protocol: Rat plasma (1 mL) from each group was dialyzed against 1 mL of isotonic Sørensen phosphate buffer (pH 7.4) containing 3% dextran (“the buffer”) via a Spectra/Por 2 membrane (molecular weight cutoff: 12,000–14,000 Da; Spectrum Medical Industries, Los Angeles, CA, USA). […] The binding percentage (%) was calculated as follows:(1) Binding %=CP−CB/CP×100

in vivo = conditions: for AUC / clearance / CL renal / half-life / Vd / Cmax / bioavailability / Tmax: rat, in vivo; for clearance: CL; for CL renal: CLR; for half-life: Terminal half-life; for Vd: Vss; for bioavailability: F (absolute oral bioavailability), 20 mg/kg oral vs 10 mg/kg i.v.
Protocol: All surgical procedures were performed following anesthesia with 100 mg/kg ketamine according to a previously reported method. For the intravenous study, the carotid artery and jugular vein were cannulated for blood sampling and drug administration, respectively. For the oral study, rats were restrained from food overnight but were allowed to drink water ad libitum. Only the carotid artery was cannulated for the blood sampling.
A heparinized 0.9% NaCl-injectable solution (10 IU/mL) was immediately flushed into the carotid artery after collecting the blood samples to prevent blood clotting.
The volume of the combined urine was then measured, and two 100 μL aliquot samples were collected. At the same time, the rat abdomen was surgically opened, and the whole gastrointestinal tract was collected in a beaker containing 50 mL methanol and cut into small pieces. After even mixing, 50 µL of the supernatant was collected.
Pharmacokinetic parameters were estimated using the standard method by non-compartmental analysis (WinNonlin; Pharsight Corporation, Mountain View, CA, USA). AUC values were calculated using the trapezoidal rule–extrapolation method. The peak plasma concentration (Cmax) and time to reach Cmax (Tmax) were measured directly from the plasma concentration–time curves. […] The glomerular filtration rate was measured by calculating the CLCR, assuming that the kidney function was stable during the experimental period.

[1] = Protocol: Enzyme kinetics in the hepatic and intestinal microsomes were determined according to a previously reported method. Microsomal protein concentrations in the liver and intestine were measured using bicinchoninic acid assay. […] The total volume was adjusted to 1 mL by adding 0.1 M phosphate-buffered solution (pH 7.4) to the system, and the samples were incubated for 15 min in a water-bath shaker at 37 °C at the rate of 50 oscillations per min. The reaction was completed by adding 2 volumes of methanol. Subsequently, two 50 μL aliquots of each reaction mixture were collected.
[2] = human, oral; cited from earlier work
[3] = rats, intraportal administration; cited from earlier work
[4] = various pH buffers (pH 2–10) and gastric juice (pH 3.5), 24 h; cited from earlier work
[5] = rats (n = 3), 10 mg/kg i.v.; cited from earlier work
P-gp = conditions: cited from earlier work
[6] = LC rats vs CON rats, 10 mg/kg i.v.
[7] = LC rats vs CON rats, 20 mg/kg oral
[8] = LC-ISN rats vs CON rats, 10 mg/kg i.v.
[9] = LC-ISN rats vs CON rats, 20 mg/kg oral
[10] = LC-ISN rats vs LC rats, 10 mg/kg i.v.
[11] = LC-ISN rats vs LC rats, 20 mg/kg oral
[12] = iv, 10 mg/kg, CON rats, 10 mg/kg i.v. 1 min infusion
[13] = iv, 10 mg/kg, LC rats, 10 mg/kg i.v. 1 min infusion
[14] = iv, 10 mg/kg, LC-ISN rats, 10 mg/kg i.v. 1 min infusion
[15] = iv, 10 mg/kg, CON rats, 10 mg/kg i.v.
[16] = iv, 10 mg/kg, LC rats, 10 mg/kg i.v.
[17] = iv, 10 mg/kg, LC-ISN rats, 10 mg/kg i.v.
[18] = po, 20 mg/kg, CON rats, 20 mg/kg oral
[19] = po, 20 mg/kg, LC rats, 20 mg/kg oral
[20] = po, 20 mg/kg, LC-ISN rats, 20 mg/kg oral
[21] = hepatic microsomes, LC rats vs CON rats

## CC1CCN(C(=O)CC#N)CC1N(C)c1ncnc2[nH]ccc12 (stereo not drawn) [tofacitinib, 3-(4-methyl-3-(methyl(7H-pyrrolo[2,3-d]pyrimidin-4yl)amino)piperidin-1-yl)-3-oxopropanenitrile]
In vitro; LC rats vs CON rats
  Decrease in plasma protein binding: 28.3%
In vitro; LC-ISN rats vs CON rats
  Decrease in plasma protein binding: 21.5%
In vitro; CON rat plasma, 10 μg/mL tofacitinib, 37 °C, 24 h
  fraction unbound at 24 h, 10 μg/mL: 0.749
In vitro; LC rat plasma, 10 μg/mL tofacitinib, 37 °C, 24 h
  fraction unbound at 24 h, 10 μg/mL: 0.82
In vitro; LC-ISN rat plasma, 10 μg/mL tofacitinib, 37 °C, 24 h
  fraction unbound at 24 h, 10 μg/mL: 0.803
In vitro; range over CON, LC and LC-ISN rats
  fraction unbound at 24 h, 10 μg/mL: 0.749 to 0.82
In vivo; CON rats, 10 mg/kg i.v.
  Ae0–24 h (excreted in urine as unchanged for 24 h): 13.9 ± 2.28 % of dose
  CLNR: 21.1 ± 4.57 mL/min/kg
  GI24 h (remained in the gastrointestinal tract at 24 h): 0.164 ± 0.102 % of dose
In vivo; CON rats, 20 mg/kg oral
  Ae0–24 h: 11.8 ± 4.08 % of dose
  GI24 h: 0.106 ± 0.101 % of dose
In vivo; [6]
  Greater Ae0–24 h: 189%
  Increase in AUC: 158%
  Increase in Vss: 86.0%
  Longer terminal half-life: 219%
  Slower CL: 54.4%
  Slower CLNR: 69.9%
In vivo; [7]
  Increase in AUC: 429%
  Increase in Ae0–24 h: 203%
  Increase in Cmax: 158%
  Increase in F: 105%
In vivo; LC rats, 10 mg/kg i.v.
  Ae0–24 h (excreted in urine as unchanged for 24 h): 40.2 ± 18.9 % of dose
  CLNR: 6.35 ± 1.27 mL/min/kg
  GI24 h (remained in the gastrointestinal tract at 24 h): 2.07 ± 2.12 % of dose
In vivo; LC rats, 20 mg/kg oral
  Ae0–24 h: 35.8 ± 16.9 % of dose
  GI24 h: 1.73 ± 2.04 % of dose
In vivo; [8]
  Greater Ae0–24 h: 117%
  Increase in terminal half-life: 64.4%
  Slower CL: 42.7%
  Slower CLNR: 54.1%
In vivo; [9]
  Increase in AUC: 223%
  Increase in Ae0–24 h: 204%
  Increase in Cmax: 72.2%
  Increase in F: 92.9%
In vivo; [10]
  Decrease in AUC: 35.1%
  Decrease in terminal half-life: 48.5%
In vivo; [11]
  Decrease in AUC: 38.9%
  Decrease in Cmax: 33.2%
In vivo; LC-ISN rats, 10 mg/kg i.v.
  Ae0–24 h (excreted in urine as unchanged for 24 h): 30.1 ± 12.3 % of dose
  CLNR: 9.68 ± 2.40 mL/min/kg
  GI24 h (remained in the gastrointestinal tract at 24 h): 0.166 ± 0.135 % of dose
In vivo; LC-ISN rats, 20 mg/kg oral
  Ae0–24 h: 35.9 ± 16.8 % of dose
  GI24 h: 0.340 ± 0.288 % of dose
In vivo; [12]
  AUC: 7330 ng·h/mL
  half-life: 35.4 ± 19.2 min
In vivo; [13]
  AUC: 18900 ng·h/mL
  half-life: 113 ± 43.7 min
In vivo; [14]
  AUC: 12300 ng·h/mL
  half-life: 58.2 ± 16.8 min
In vivo; [15]
  clearance: 24.1 ± 6.27 mL/min/kg
  CL renal: 3.73 ± 1.09 mL/min/kg
  Vd: 0.429 ± 0.253 L/kg
In vivo; [16]
  clearance: 11 ± 2.06 mL/min/kg
  CL renal: 4.65 ± 2.74 mL/min/kg
  Vd: 0.798 ± 0.177 L/kg
In vivo; [17]
  clearance: 13.8 ± 1.73 mL/min/kg
  CL renal: 4.1 ± 1.64 mL/min/kg
  Vd: 0.8 ± 0.326 L/kg
In vivo; [18]
  AUC: 6400 ng·h/mL
  CL renal: 6.98 ± 2.99 mL/min/kg
  Cmax: 3530 ± 1460 ng/mL
  Tmax: 50 min
In vivo; [19]
  AUC: 33800 ng·h/mL
  CL renal: 3.62 ± 1.78 mL/min/kg
  Cmax: 9100 ± 1260 ng/mL
  Tmax: 55.7 min
In vivo; [20]
  AUC: 20700 ng·h/mL
  CL renal: 5.71 ± 2.47 mL/min/kg
  Cmax: 6080 ± 1990 ng/mL
  Tmax: 85.7 min
In vivo; po, 20 mg/kg, CON rats
  bioavailability: 43.6%
In vivo; po, 20 mg/kg, LC rats
  bioavailability: 89.5%
In vivo; po, 20 mg/kg, LC-ISN rats
  bioavailability: 84.1%
In vivo; the three groups of rats, 20 mg/kg oral
  GI24 h: less than 1.73 % of the oral dose
[1]; hepatic microsomes, CON, LC and LC-ISN rats
  Km for disappearance of tofacitinib: comparable among the three groups of rats
[1]; [21]
  Decrease in hepatic CLint: 64.9%
  Slower Vmax for disappearance of tofacitinib: 63.4%
[1]; hepatic microsomes, LC-ISN rats vs CON rats
  Hepatic CLint recovered to % of CON rats: 92.2%
[1]; intestinal microsomes, CON, LC and LC-ISN rats
  Intestinal CLint: not significantly different among the three groups of rats
[2]
  Fraction excreted by the kidneys in unmetabolized form: 30%
[3]
  Hepatic first-pass effect: 42.0%
[4]
  Stability: stable
[5]
  Biliary excretion: 0.703 % of the unchanged drug dose
P-gp
  P-gp substrate: substrate of P-gp
